Data from ChEMBL document CHEMBL2177097, “Discovery of (2S,3R)-N-[2-(pyridin-3-ylmethyl)-1-azabicyclo[2.2.2]oct-3-yl]benzo[b]furan-2-carboxamide (TC-5619), a selective α7 nicotinic acetylcholine receptor agonist, for the treatment of cognitive disorders” (J Med Chem, 2012).

Tests used:
[1] = Half life in rat; type: ADME, organism-based; details: in vivo
[2] = Drug degradation in human liver microsomes at 60 mins; type: ADME, Microsome; details: read-out: Drug degradation
[3] = Ratio of drug level in brain to plasma in rat measured 6 hrs post dose; type: ADME; details: brain and plasma, read-out: BPR
[4] = Drug degradation in human hepatocytes at 4 hrs; type: ADME, cell-based, Hepatocyte; details: read-out: Drug degradation
[5] = Oral bioavailability in rat; type: ADME, organism-based; details: in vivo

O=C(N[C@@H]1C2CCN(CC2)[C@H]1Cc1cccnc1)c1cc2ccccc2o1 [BRADANICLINE]
half-life [1]: 120 min | metabolised at 1 h [2]: < 25% | Kp at 6 h [3]: 0.4 | metabolised at 4 h [4]: 27% | bioavailability [5]: 20%
